# Test results: ChEMBL document CHEMBL3046331, “Ethyl 4-[(1-substituted indol-2-yl)methoxy]benzoates and indoline derivatives: Anti-juvenile hormone and juvenile hormone activities” (2009)
# Active and inactive are the calls of the source. The rule behind the calls is not given here.
# Key:
# Bombyx mori [1] = experiment: Juvenile hormone activity in allatectomized fourth-instar larvae of Bombyx mori assessed as number of larvae transformed into fifth instar larvae at 40 ug/larvae topically applied to the dorsal abdomen; assay type: functional, organism-based
# Bombyx mori [2] = experiment: Antijuvenile hormone activity in third-instar larvae of Bombyx mori assessed as induction of precocious metamorphosis at 1 ug/larvae topically applied to the dorsal abdomen; assay type: functional
# Bombyx mori [3] = experiment: Antijuvenile hormone activity in third-instar larvae of Bombyx mori assessed as induction of precocious metamorphosis at 40 ug/larvae topically applied to the dorsal abdomen; assay type: functional
# Bombyx mori [4] = experiment: Antijuvenile hormone activity in third-instar larvae of Bombyx mori assessed as induction of precocious metamorphosis at 10 ug/larvae topically applied to the dorsal abdomen; assay type: functional
# Bombyx mori [5] = experiment: Juvenile hormone activity in allatectomized fourth-instar larvae of Bombyx mori assessed as number of larvae transformed into larval-pupal intermediate at 40 ug/larvae topically applied to the dorsal abdomen; assay type: functional, organism-based
# Bombyx mori [6] = experiment: Juvenile hormone activity in allatectomized fourth-instar larvae of Bombyx mori assessed as number of larvae transformed into precocious pupa at 40 ug/larvae topically applied to the dorsal abdomen; assay type: functional, organism-based
# Bombyx mori [7] = experiment: Juvenile hormone activity in allatectomized fourth-instar larvae of Bombyx mori assessed as number of larvae transformed into larval-pupal intermediate at 1 ug/larvae topically applied to the dorsal abdomen; assay type: functional, organism-based
# Bombyx mori [8] = experiment: Juvenile hormone activity in allatectomized fourth-instar larvae of Bombyx mori assessed as number of larvae transformed into precocious pupa at 1 ug/larvae topically applied to the dorsal abdomen; assay type: functional, organism-based
# Bombyx mori [9] = experiment: Juvenile hormone activity in allatectomized fourth-instar larvae of Bombyx mori assessed as number of larvae transformed into fifth instar larvae at 1 ug/larvae topically applied to the dorsal abdomen; assay type: functional, organism-based
SMILES,Activity (Bombyx mori [1]),Activity (Bombyx mori [2]),Activity (Bombyx mori [3]),Activity (Bombyx mori [4]),Activity (Bombyx mori [5]),Activity (Bombyx mori [6]),Activity (Bombyx mori [7]),Activity (Bombyx mori [8]),Activity (Bombyx mori [9])
CCCCN1c2ccccc2C[C@H]1COc1ccc(C(=O)OCC)cc1,inactive,5%,82%,65%,inactive,Active,,,
COC(C)(C)CCC[C@H](C)C/C=C/C(C)=C/C(=O)OC(C)C,,,,,,,inactive,inactive,Active
CCOC(=O)c1ccc(OCc2cc3ccccc3n2CC)cc1,,5%,5%,5%,,,,,
CCOC(=O)c1ccc(OCc2cc3ccccc3n2Cc2ccccc2)cc1,,73%,84%,73%,inactive,,,,
CCCn1c(COc2ccc(C(=O)OCC)cc2)cc2ccccc21,,67%,90%,95%,,,,,
CCCCn1c(COc2ccc(C(=O)OCC)cc2)cc2ccccc21,Active,65%,94%,93%,inactive,inactive,,,
CCOC(=O)c1ccc(OC[C@@H]2Cc3ccccc3N2Cc2ccccc2)cc1,,5%,28%,25%,,,,,
CCCCC(COc1ccc(C(=O)OCC)cc1)Cc1ccccc1 (stereo unspecified),,90%,12%,34%,,,,,
